The nature of assay [1]: potency of ADAM10 substrate cleavage blockers – biochemical, QFRET, dose response (AID 743254).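 Note: ADAM10 enzyme with the DM2 quenched FRET peptide as substrate; EDANS fluorescence gain as the protease cuts the substrate; inhibitor potency against ADAM10 proteolytic activity.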
Assay [2] deals with Disintegrin and metalloproteinase domain-containing protein 17 (Homo sapiens, UniProt P78536). The assay is described as follows: inhibition of ADAM17 substrate cleavage – biochemical, quenched FRET substrate, counter-screen for ADAM10 exosite inhibitor project, dose response (AID 743253). On the technique in general: Counterscreens check selectivity or assay interference.
The nature of assay [3]: HEK-293T viability loss after treatment – luminescence, T-cell screen hits, cytotoxicity control for TCR NF-kB inhibitor project, dose response (AID 489026).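 Note: cells exposed to compound about 14 hours before the viability readout.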 In kind it is functional, cell-based.
A further assay has as its target Paired box protein Pax-8 (Homo sapiens, UniProt Q06710). Put plainly: PAX8 transcriptional activity inhibition in RMG-I – RMG-I cells, luciferase, cherry-pick, dose response (AID 687027).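 Note: luciferase reporter driven by Pax8 target thyroperoxidase promoter measured by SteadyGlo luminescence.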 In kind it is functional, cell-based.
Assay [4] in a line: inhibitors acting on PAX2 in cells – cell-based, plate reader, dry powder samples, selectivity assay for PAX8 inhibitor project, dose response (AID 743048).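 Note: HEK293 cells carrying a WT1 promoter luciferase reporter driven by expressed Pax2; potency is for inhibition of Pax2 driven reporter signal.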 It is filed as functional.
The nature of assay [5]: COV362 cell viability loss – plate reader, dry powder, SA12, cytotoxicity control for PAX8 inhibitor project, dose response (AID 743144). In kind it is functional, cell-based.
Assay [6] in a line: toxicity toward immortalized ovarian surface epithelium – cell-based, plate reader, dry powder samples, cytotoxicity control for PAX8 inhibitor project, dose response (AID 743045). In kind it is functional.
The nature of assay [7]: A2780 cell killing – plate reader, dry powder samples, cytotoxicity control, dose response (AID 743046). It is filed as functional, cell-based.
Assay [8] in a line: OVCAR-3 cell viability loss – plate reader, dry powder samples, PAX8 inhibitor project, dose response (AID 743044). It is filed as functional, cell-based.
Assay [9] can be described thus: PAX5 cellular inhibition readout – cell-based, plate reader, dry powder samples, selectivity assay for PAX8 inhibitor project, dose response (AID 743047).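 Note: HEK293 cells carrying a Pax5 driven CD19 promoter luciferase reporter; potency of inhibitors that lower reporter luminescence.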 In kind it is functional.
Assay [10] in a line: A549 cell cytotoxicity, dose response, cytotoxicity control, plate reader, cherry-pick, antagonist series (AID 743412). It is filed as functional, cell-based.
Assay [11] can be described thus: toxicity toward HepG2 liver cells – cell-based, plate reader, cherry-pick, antagonist series, cytotoxicity control, dose response (AID 743416). In kind it is functional.
A short description of assay [12]: IGROV1 cell killing – plate reader, dry powder samples, PAX8 inhibitor project, dose response (AID 743043). It is filed as functional, cell-based. The settings on record: IGROV-1.
Assay [13] in a line: blockers of bursicon-stimulated LGR2 cAMP reporter – cell-based, HEK293, CRE-luciferase reporter, cherry pick, set 2, dose response (AID 743343).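 Note: transfected cells were stimulated with diluted bursicon conditioned medium after compound addition.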 It is filed as functional. For orientation: A reporter such as luciferase makes a cellular process visible.
The nature of assay [14]: OVCAR4 cell viability loss – plate reader, dry powder, SA11, cytotoxicity control for PAX8 inhibitor project, dose response (AID 743150). In kind it is functional, cell-based. The settings on record: OVCAR-4.
Assay [15] in a line: COV434 cell viability loss – plate reader, dry powder, SA7, cytotoxicity control for PAX8 inhibitor project, dose response (AID 743145). It is filed as functional, cell-based.
A short description of assay [16]: OV-90 cell viability loss – plate reader, dry powder, SA8, PAX8 inhibitor project, dose response (AID 743149). It is filed as functional, cell-based.
The nature of assay [17]: general cell-killing toxicity readout – plate reader, dry powder samples, cytotoxicity control for PAX8 inhibitor project, dose response (AID 743021). In kind it is functional, cell-based.
A short description of assay [18]: blockade of melanocortin 4 receptor signaling – cell-based, plate reader, cherry pick, counter-screen for LGR2 antagonist project, dose response (AID 743444).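 Note: transfected HEK 293 cells stimulated with alpha-MSH peptide; potency of inhibitors of the alpha-MSH evoked signal.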 In kind it is functional.
A short description of assay [19]: PAX8-dependent cell viability loss – plate reader, dry powder, dose response (AID 743049). It is filed as functional, cell-based.
Assay [20] is described as follows: viability loss in HEK293 cells – cell-based, plate reader, cherry-picked samples, cytotoxicity control, dose response (AID 743446). In kind it is functional.
The next assay has as its system HeLa. The assay is described as follows: viability loss in HeLa cells – cell-based, ATP luminescence, cherry-pick samples, cytotoxicity control, dose response (AID 687004). It is filed as functional. The settings on record: Homo sapiens.
Assay [21] deals with T1, Oxysterols receptor LXR-beta (Homo sapiens, UniProt P55055).
T1 sequence (P55055 whole entry): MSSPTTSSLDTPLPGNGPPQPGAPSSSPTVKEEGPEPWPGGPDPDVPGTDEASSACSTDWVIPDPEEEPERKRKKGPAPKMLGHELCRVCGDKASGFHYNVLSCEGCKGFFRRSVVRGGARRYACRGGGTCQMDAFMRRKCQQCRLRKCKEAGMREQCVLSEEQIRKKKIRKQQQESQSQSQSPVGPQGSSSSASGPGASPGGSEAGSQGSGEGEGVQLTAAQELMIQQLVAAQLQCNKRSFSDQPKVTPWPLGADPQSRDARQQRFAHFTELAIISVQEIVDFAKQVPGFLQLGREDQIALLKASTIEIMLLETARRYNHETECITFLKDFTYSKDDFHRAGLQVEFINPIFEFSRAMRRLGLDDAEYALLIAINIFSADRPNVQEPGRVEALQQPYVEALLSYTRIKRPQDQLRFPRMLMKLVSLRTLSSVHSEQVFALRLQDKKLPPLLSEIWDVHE
It is filed as functional, cell-based.

In assay [22] the target is Metabotropic glutamate receptor 3 (Rattus norvegicus, UniProt P31422). Put plainly: inhibitors of rat mGlu3 Galpha15 signaling – TREx293 cells, calcium flux, mGlu3 NAM project, dose response (AID 651840). It is filed as functional. For orientation: Calcium assays in cells follow changes in intracellular calcium, usually with a dye or a luminescent sensor.
For assay [23], the target named is COUP transcription factor 2 (Homo sapiens, UniProt P24468). The assay is described as follows: Luminescence-based cell-based high throughput dose response assay to identify inhibitors of COUP-TFII (NR2F2). It is filed as functional.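 Note: HEK293 cells transiently cotransfected with COUP-TFII expression vector and reporter; luciferase reporter luminescence driven by COUP-TFII from the pX2-168 reporter plasmid.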
For assay [24], the target named is Beta-2 adrenergic receptor (Homo sapiens, UniProt P07550). The assay is described as follows: ADRB2 activation measured by internalization – cell-based, FAP fluorogen, flow cytometry, cherry pick 1, dose response (AID 588763). In kind it is functional.
Assay [25] is described as follows: reduction of Shn3 3'UTR-driven luciferase in osteoblasts – cell-based, Clone20 osteoblasts, firefly luciferase, cherry-picked, dose response (AID 624132).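 Note: firefly luciferase luminescence from reporter carrying the Shn3 3'UTR in osteoblasts.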 It is filed as functional.
The nature of assay [26]: loss of viability in HepG2 cells – cell-based, CellTiter-Glo, cherry-picked, cytotoxicity control for Shn3 inhibitor project, dose response (AID 624134). In kind it is functional.
The nature of assay [27]: non-specific 3'UTR reporter inhibition in Clone20-Shn3RL – cell-based, Renilla luciferase, cherry-picked, counter-screen for Shn3 inhibitor project, dose response (AID 624133). It is filed as functional.
Assay [28] in a line: Shn3 transcript knock-down in Clone20 cells – cell-based, qPCR, cherry-pick, dose response (AID 743415). In kind it is functional.
Assay [29] is described as follows: Shn3 3'UTR reporter signal decrease – cell-based, Clone20 osteoblasts, firefly luciferase, cherry-pick, set 2, Schnurri-3 inhibitor project, dose response (AID 720490).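 Note: actives lower the luminescence signal as inhibitors.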 In kind it is functional.
Assay [30] is described as follows: EF1alpha-driven Renilla reporter with control 3'UTR suppression – Clone20-Shn3RL cells, dual-Glo, cherry-pick, set 2, counter-screen for Shn3 3'UTR targeting project, dose response (AID 720724). In kind it is functional, cell-based. The settings on record: Dual-Go Shn3RL.
A short description of assay [31]: liver cell line viability loss – HepG2, luminescence plate reader, powder samples, set 2, cytotoxicity control, dose response (AID 651860). It is filed as functional, cell-based.
Assay [32] can be described thus: kidney cell line viability loss – HEK293T, luminescence plate reader, powder samples, set 4, cytotoxicity control, dose response (AID 651863). It is filed as functional, cell-based. The note with it: HEK293.
Assay [33] in a line: cells. It is filed as functional, cell-based.
Assay [34] addresses T2, Trace amine-associated receptor 1 (Homo sapiens, UniProt Q96RJ0). Put plainly: Fluorescence-based cell-based high throughput dose response assay to identify agonists of the human trace amine associated receptor 1 (TAAR1). In kind it is functional.
The target in assay [35] is T2, Trace amine-associated receptor 1. The assay is described as follows: Counterscreen for agonists of the human trace amine associated receptor 1 (hTAAR1): Fluorescence-based cell-based high throughput dose response assay to identify hTAAR1 agonist that also desensitize TAAR1 receptor response. In kind it is functional.
A short description of assay [36]: cells. In kind it is functional, cell-based. This is another data set of the same source.
The nature of assay [37]: THP-1 cell cytotoxicity, dose response, cytotoxicity control for non-replicating M. tuberculosis project (AID 489025). In kind it is functional.
A further assay has as its target Nonstructural protein 1 (Influenza A virus, UniProt Q194T2). It is filed as functional, Influenza A virus (A/California/07/2009(H1N1)).
Assay [38] is described as follows: cells. It is filed as functional.
Assay [39] addresses Matrix metalloproteinase-14 (Homo sapiens, UniProt P50281). Put plainly: Dose Response confirmation of uHTS hits for a small molecule inhibitors of MT1-MMP activation in a fluorescence assay set 1. In kind it is functional.
For assay [40], the target named is Scavenger receptor class B member 1 (Mus musculus, UniProt Q61009). The assay is described as follows: blockers of DiI-HDL lipid transfer via SR-BI – cell-based, ldlA[mSR-BI] CHO, DiI fluorescence, dry powder, set 10, dose response (AID 624029). In kind it is functional.
Assay [41] is described as follows: A Cell-Based Confirmatory Screen for Compounds that Inhibit VEEV, TC-83 (8). In kind it is functional.
A further assay deals with Major prion protein (Homo sapiens, UniProt P04156). It is filed as functional, cell-based.
Assay [42] in a line: cells.

Structures are written as SMILES. Calls of active or inactive are those of the source.

`O=C(CC1S/C(=N\c2ccccc2)N(Cc2ccccn2)C1=O)Nc1ccc(Br)cc1` (configuration not stated): the results for the IC50 in assay [1] and in assay [2] were 37.4 µM (inactive) and > 69.5 µM (inactive), respectively.

Turning to `Cc1cnc(NC(=O)c2ccc3c(c2)OCCO3)s1`, the IC50 – broadly, the concentration needed to halve the response being measured – in [3] was > 80 µM (inactive). Also, the AC50 (as a rule, the concentration giving half of the maximal activity seen) on Paired box protein Pax-8 was 3.49 µM (active); in assay [4] it was 13.4 µM (active); in [5], 10.2 µM (active); in assay [6], 26 µM (active); in assay [7], 28.8 µM (active); in assay [8], 18.4 µM (active). In addition, the AC50 was 17.5 µM (active) in [9]; 5.12 µM (active) in assay [10]; 36 µM (active) in assay [11]; 20.7 µM (active) in assay [12]; 0.854 µM (active) in [13]; 26.8 µM (active) in assay [14]. Besides, the AC50 in assay [15] was 29.4 µM (active); in [16], 9.33 µM (active); in assay [17], 52.3 µM (active); in assay [18], 0.794 µM (active); in assay [19] it was 13.1 µM (active); in assay [20], 31.4 µM (active).

On to `C[C@@H]1CN([C@@H](C)CO)C(=O)c2cc(NC(=O)Nc3cccc4ccccc34)ccc2O[C@@H]1CN(C)C(=O)Nc1ccccc1`, for which the AC50 in the assay with HeLa is 0.252 µM (active).

As for `Nc1c(-c2cccs2)cnc2c(-c3ccc(F)cc3)cnn12`, the EC50 (as a rule, the midpoint of the concentration-response curve) in assay [21] is > 67.5 µM (inactive).

Turning to `COc1ccc(C#Cc2ccc(C(=O)N3CCCC4(C3)OCCO4)cc2)cc1`, the 50% inhibitory concentration (IC50) in assay [22] was 7.17 µM.

Consider `Cc1nn(C)c(C)c1NC(=O)COc1ccc(Cl)cc1Br`, for which, in assay [23], the IC50 was 8.76 µM (active).

With `Cn1nnnc1Sc1ncnc2scc(-c3ccc(Br)cc3)c12`, the EC50 in assay [24] was 8.44 µM (active). The AC50 in [25] is 0.334 µM (active); in assay [26], 19.2 µM (active); in assay [27] it was 14.4 µM (active); at Paired box protein Pax-8 it was 3.56 µM (active); in [28] it was 17.6 µM (active); in assay [29], 5.82 µM (active). Moreover, the AC50 is 6.82 µM (active) in assay [10]; 7.97 µM (active) in [11]; 5.09 µM (active) in assay [30]; 8.94 µM (active) in assay [13]; 15.6 µM (active) in [18]; 11.2 µM (active) in assay [20].

With `COc1ccc(CC/N=C2\C=C(NS(=O)(=O)c3c(C)cc(C)cc3C)c3ccccc3C2=O)cc1`, the AC50 in assay [31] and in [32] was > 52 µM (inactive) in each case.

Turning to `CC(=NCCc1ccc(O)cc1)C1=C(O)OCC1`, the IC50 in the assay “cells [33]” was > 29.9 µM (inactive); in assay [35] it was 9.27 µM (active). The EC50 in assay [34] is 2.05 µM (active); in “cells [36]”, > 29.9 µM (inactive).

For the molecule `COc1ccc(Nc2ccccc2N)cc1`, the CC50 (commonly the concentration giving 50% cytotoxicity) in assay [37] is 38.1 µM (active). Further, the IC50 on Nonstructural protein 1 is 42.8 µM (active); in “cells [38]”, 1.41 µM (active); in [39], 8.32 µM (active).

Regarding `CC(C)NC(=O)Nc1ccc2c(c1)C(=O)N([C@@H](C)CO)C[C@H](C)[C@H](CN(C)S(=O)(=O)c1ccc(Cl)cc1)O2`, the AC50 in assay [40] is > 70 µM (inactive).

For `CN1CCN(C)/C(=N/c2cc(Cl)c(C#N)cc2C(=O)Nc2ccccc2)C1`, the IC50 in assay [41] was < 0.26 µM (active).

Take `CN(C)S(=O)(=O)c1ccc(N2CCCC2)c(C(=O)Nc2nc3ccccc3s2)c1`: the IC50 on Major prion protein was 10.4 µM (inactive); in the assay “cells [42]”, > 138 µM (inactive).

The values are drawn from ChEMBL document CHEMBL1201862, “PubChem BioAssay data set” (2004).
